Laboratory results published in PubChem BioAssay (NCI).
Values joined by “and” are separate entries in the source; they are usually repeats but may differ in a detail not shown here. Equal values may be shown once.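 Briefly, cells in 96-well plates were exposed to five compound concentrations for 48 h, and endpoints were estimated by linear interpolation. The concentration for 50% growth inhibition is given as GI50. At the TGI there is no net growth.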

Assays:
Assay in all cases: NCI-60 cell line screen, 48 h
[1] = system: U251 CNS
[2] = system: SK-MEL-28 melanoma
[3] = system: SK-MEL-2 melanoma
[4] = system: SF-268 CNS
[5] = system: EKVX NSCLC
[6] = system: NCI-H23 lung
[7] = system: RPMI-8226 leukemia
[8] = system: COLO 205 colon
[9] = system: HT29 colon
[10] = system: HCT-116 colon

| SMILES | GI50 [1] | TGI [1] | GI50 [2] | TGI [2] | GI50 [3] | TGI [3] | GI50 [4] | TGI [4] | GI50 [5] | TGI [5] | GI50 [6] | TGI [6] | GI50 [7] | TGI [7] | GI50 [8] | TGI [8] | GI50 [9] | TGI [9] | GI50 [10] | TGI [10] |
| --- | --- | --- | --- | --- | --- | --- | --- | --- | --- | --- | --- | --- | --- | --- | --- | --- | --- | --- | --- | --- |
| OCc1c[nH]c2ccccc12 | 21.9 µM | 62 µM | 23.5 µM | 50.1 µM | 17.4 µM | 32.8 µM | 33.4 µM | > 100 µM | 15.5 µM | 63.3 µM | 19.5 µM | 48.1 µM | 20.6 µM | 64.2 µM | 16 µM | 35.1 µM | 24 µM | 54.6 µM | 17.2 µM | 31.9 µM |
| CCCCN=C(NC#N)NCCCC |  | > 100 µM |  | > 100 µM |  | > 100 µM |  | > 100 µM |  | > 100 µM |  | > 100 µM |  | > 100 µM |  | 98.9 µM |  | > 100 µM |  | > 100 µM |
| O=C(c1ccccc1)c1nnc(C(=O)c2ccccc2)nn1 |  | > 344 µM |  | > 344 µM |  | > 344 µM |  | > 344 µM |  | > 344 µM |  | > 344 µM |  | > 344 µM |  | > 344 µM |  | > 344 µM |  | > 344 µM |
| N#CSc1c[nH]c2cccc(/C=C/C(=O)/C=C(/C=C/c3cccc4[nH]cc(SC#N)c34)OB(F)F)c12 | 0.366 µM | 4.25 µM | 0.342 µM | 1.49 µM | 2.4 µM | 5.9 µM | 1.07 µM | 6.44 µM | 0.916 µM | 5.81 µM | 0.755 µM | 3.29 µM | 0.351 µM | 30 µM | 0.293 µM | 0.856 µM | 0.386 µM | 2.26 µM | 0.244 µM | 0.742 µM |
| O/N=C/C1c2ccccc2-c2ccccc21 |  | 44 µM |  | 29.2 µM |  | 36.1 µM |  | 37.6 µM |  | 28.2 µM |  | 37.6 µM |  | 52.8 µM |  | 30.7 µM |  | 28.6 µM |  | 32.8 µM |
| COc1cc2c(c(O)c1Br)C(=O)c1c(O)cc(C[C@H](C)O)cc1[C@H]2[C@H]1c2cc(C[C@H](C)O)cc(O)c2C(=O)c2c1cc(OC)c(Br)c2O | 2.97 µM and 5.25 µM | 23.1 µM and 39.2 µM | 4.54 µM and 5.6 µM | 32.9 µM and > 100 µM | 6.37 µM and 18.1 µM | 19.6 µM and 44 µM | 12.3 µM and 31.2 µM | 67.5 µM and > 100 µM | 4.86 µM and 6.86 µM | 16.3 µM and 27.5 µM | 5.85 µM and 4.83 µM | 42.1 µM and 39.3 µM | 2.19 µM and 3 µM | 67.5 µM and 11.4 µM | 2.32 µM and 6.74 µM | 9.21 µM and 24.9 µM | 2.39 µM and 4.83 µM | 67.5 µM and > 100 µM | 3.77 µM and 5.49 µM | 67.5 µM and 63.1 µM |
| C=CC(=O)N1CC2(CCN(c3nc(OC4CCN(CCCOC)CC4)nc4c(OCC(F)(F)F)c(-c5c(C)ccc6[nH]ncc56)c(C5CC5)cc34)CC2)C1 | 2.81 µM | 10 µM | 1.75 µM | 3.37 µM | 2.19 µM | 4.77 µM | 3.75 µM | 13.6 µM | 4.33 µM | 16.9 µM |  | 1.95 µM | 2.14 µM | 5.81 µM | 1.97 µM | 3.73 µM | 2.28 µM | 5.83 µM | 1.95 µM | 4.17 µM |
| Cn1c(=O)c2[nH]c(SCc3ccccn3)nc2n(C)c1=S |  | > 100 µM |  | > 100 µM |  | > 100 µM |  | > 100 µM |  | > 100 µM |  | > 100 µM |  | > 100 µM |  | > 100 µM |  | > 100 µM |  | > 100 µM |
| COC(=O)/C(=N/NC(=O)C[N+](C)(C)C)C(C(=O)OC)C(=O)C(=O)Nc1ccc(F)cc1 (centres undefined) |  | > 100 µM |  | > 100 µM |  | > 100 µM |  | > 100 µM |  | > 100 µM |  | > 100 µM |  | > 100 µM |  | > 100 µM |  | > 100 µM |  | > 100 µM |
